Assay results reported in BigSolDB 2.1.

## CC1(C)COP(=O)(C(C)(C)O)OC1
In 1,2-dichloroethane, 283.65 K
  solubility (mole fraction): 0.00134
In 1,2-dichloroethane, 288.55 K
  solubility (mole fraction): 0.00156
In 1,2-dichloroethane, 293.65 K
  solubility (mole fraction): 0.00196
In 1,2-dichloroethane, 298.25 K
  solubility (mole fraction): 0.00249
In 1,2-dichloroethane, 303.15 K
  solubility (mole fraction): 0.00308
In 1,2-dichloroethane, 308.05 K
  solubility (mole fraction): 0.00418
In 1,2-dichloroethane, 313 K
  solubility (mole fraction): 0.00519
In 1,2-dichloroethane, 317.8 K
  solubility (mole fraction): 0.00654
In 1,2-dichloroethane, 322.7 K
  solubility (mole fraction): 0.00788
In acetone, 278.15 K
  solubility (mole fraction): 0.0024
In acetone, 283.65 K
  solubility (mole fraction): 0.00286
In acetone, 288.25 K
  solubility (mole fraction): 0.00329
In acetone, 293.75 K
  solubility (mole fraction): 0.00415
In acetone, 298.65 K
  solubility (mole fraction): 0.00505
In acetone, 303.15 K
  solubility (mole fraction): 0.00596
In acetone, 308.05 K
  solubility (mole fraction): 0.007
In acetone, 312.95 K
  solubility (mole fraction): 0.00821
In acetone, 317.75 K
  solubility (mole fraction): 0.00998
In acetone, 322.55 K
  solubility (mole fraction): 0.0118
In acetonitrile, 278.65 K
  solubility (mole fraction): 0.00174
In acetonitrile, 283.65 K
  solubility (mole fraction): 0.00222
In acetonitrile, 288.85 K
  solubility (mole fraction): 0.00295
In acetonitrile, 293.75 K
  solubility (mole fraction): 0.00357
In acetonitrile, 298.25 K
  solubility (mole fraction): 0.00413
In acetonitrile, 303.2 K
  solubility (mole fraction): 0.00513
In acetonitrile, 308.15 K
  solubility (mole fraction): 0.00629
In acetonitrile, 312.9 K
  solubility (mole fraction): 0.00754
In acetonitrile, 318.3 K
  solubility (mole fraction): 0.00901
In acetonitrile, 322.8 K
  solubility (mole fraction): 0.0111
In acetonitrile, 328 K
  solubility (mole fraction): 0.0135
In acetonitrile, 332.65 K
  solubility (mole fraction): 0.0165
In chloroform, 278.9 K
  solubility (mole fraction): 0.0132
In chloroform, 283.85 K
  solubility (mole fraction): 0.0139
In chloroform, 288.55 K
  solubility (mole fraction): 0.0147
In chloroform, 293.85 K
  solubility (mole fraction): 0.0174
In chloroform, 298.3 K
  solubility (mole fraction): 0.0212
In chloroform, 303.25 K
  solubility (mole fraction): 0.0244
In chloroform, 308.05 K
  solubility (mole fraction): 0.0302
In chloroform, 313.15 K
  solubility (mole fraction): 0.0364
In chloroform, 317.75 K
  solubility (mole fraction): 0.0421
In chloroform, 322.75 K
  solubility (mole fraction): 0.0508
In ethanol, 278.85 K
  solubility (mole fraction): 0.0199
In ethanol, 283.75 K
  solubility (mole fraction): 0.023
In ethanol, 288.55 K
  solubility (mole fraction): 0.0265
In ethanol, 293.65 K
  solubility (mole fraction): 0.0315
In ethanol, 298.35 K
  solubility (mole fraction): 0.0349
In ethanol, 303.55 K
  solubility (mole fraction): 0.0403
In ethanol, 308.55 K
  solubility (mole fraction): 0.046
In ethanol, 313.25 K
  solubility (mole fraction): 0.0528
In ethanol, 318.05 K
  solubility (mole fraction): 0.0592
In ethanol, 323.15 K
  solubility (mole fraction): 0.065
In ethyl acetate, 293.75 K
  solubility (mole fraction): 0.00129
In ethyl acetate, 298.35 K
  solubility (mole fraction): 0.00141
In ethyl acetate, 303.35 K
  solubility (mole fraction): 0.00187
In ethyl acetate, 308.15 K
  solubility (mole fraction): 0.00231
In ethyl acetate, 313.35 K
  solubility (mole fraction): 0.0028
In ethyl acetate, 318 K
  solubility (mole fraction): 0.00372
In ethyl acetate, 322.75 K
  solubility (mole fraction): 0.00445
In ethyl acetate, 328.25 K
  solubility (mole fraction): 0.00563
In ethyl acetate, 333.55 K
  solubility (mole fraction): 0.00714
In ethyl acetate, 337.65 K
  solubility (mole fraction): 0.00819
In ethyl acetate, 342.85 K
  solubility (mole fraction): 0.0102
In methanol, 279.05 K
  solubility (mole fraction): 0.0374
In methanol, 283.75 K
  solubility (mole fraction): 0.0416
In methanol, 288.25 K
  solubility (mole fraction): 0.0472
In methanol, 293.75 K
  solubility (mole fraction): 0.0527
In methanol, 298.65 K
  solubility (mole fraction): 0.0577
In methanol, 303.25 K
  solubility (mole fraction): 0.0653
In methanol, 308.45 K
  solubility (mole fraction): 0.0725
In methanol, 312.95 K
  solubility (mole fraction): 0.0792
In methanol, 317.75 K
  solubility (mole fraction): 0.0862
In methanol, 322.65 K
  solubility (mole fraction): 0.0968
In water, 283.55 K
  solubility (mole fraction): 0.00713
In water, 288.85 K
  solubility (mole fraction): 0.00723
In water, 294.7 K
  solubility (mole fraction): 0.007
In water, 298.25 K
  solubility (mole fraction): 0.00711
In water, 303.3 K
  solubility (mole fraction): 0.00736
In water, 308.25 K
  solubility (mole fraction): 0.00757
In water, 313.35 K
  solubility (mole fraction): 0.00805
In water, 318.3 K
  solubility (mole fraction): 0.00861
In water, 323.15 K
  solubility (mole fraction): 0.00911
In water, 328.05 K
  solubility (mole fraction): 0.0102
In water, 332.9 K
  solubility (mole fraction): 0.0112
In water, 338.15 K
  solubility (mole fraction): 0.0128
In water, 343.15 K
  solubility (mole fraction): 0.0142
